According to ChEMBL document CHEMBL1201861, “Genomics of Drug Sensitity in Cancer screening data, Wellcome Trust Sanger Institute”:

Experiments:
Format in all cases: functional, cell-based
NCI-H1666 = experiment: cells; conditions: Homo sapiens
Description: SANGER: Inhibition of human NCI-H1666 cell growth in a cell viability assay.

H9 = experiment: cells; conditions: Homo sapiens
Description: SANGER: Inhibition of human H9 cell growth in a cell viability assay.

NCI-H1048 = experiment: cells; conditions: Homo sapiens
Description: SANGER: Inhibition of human NCI-H1048 cell growth in a cell viability assay.

OC-314 = experiment: cells; conditions: Homo sapiens
Description: SANGER: Inhibition of human OC-314 cell growth in a cell viability assay.

KNS-62 = experiment: cells; conditions: Homo sapiens
Description: SANGER: Inhibition of human KNS-62 cell growth in a cell viability assay.

SW 1116 = experiment: cells; conditions: Homo sapiens
Description: SANGER: Inhibition of human SW1116 cell growth in a cell viability assay.

ZR-75-30 = experiment: cells; conditions: Homo sapiens
Description: SANGER: Inhibition of human ZR-75-30 cell growth in a cell viability assay.

ECC10 = experiment: cells; conditions: Homo sapiens
Description: SANGER: Inhibition of human ECC10 cell growth in a cell viability assay.

RH-18 = experiment: cells; conditions: Homo sapiens, Rh18
Description: SANGER: Inhibition of human RH-18 cell growth in a cell viability assay.

D-423MG = experiment: cells; conditions: Homo sapiens
Description: SANGER: Inhibition of human D-423MG cell growth in a cell viability assay.

CFPAC-1 = experiment: cells; conditions: Homo sapiens
Description: SANGER: Inhibition of human CFPAC-1 cell growth in a cell viability assay.

LU-135 = experiment: cells; conditions: Homo sapiens
Description: SANGER: Inhibition of human LU-135 cell growth in a cell viability assay.

NCI-H1975 = experiment: cells; conditions: Homo sapiens
Description: SANGER: Inhibition of human NCI-H1975 cell growth in a cell viability assay.

TGBC11TKB = experiment: cells; conditions: Homo sapiens
Description: SANGER: Inhibition of human TGBC11TKB cell growth in a cell viability assay.

EPLC-272H = experiment: cells; conditions: Homo sapiens
Description: SANGER: Inhibition of human EPLC-272H cell growth in a cell viability assay.

D-566MG = experiment: cells; conditions: Homo sapiens
SW900 = experiment: cells; conditions: Homo sapiens
Description: SANGER: Inhibition of human SW900 cell growth in a cell viability assay.

NCI-H2291 = experiment: cells; conditions: Homo sapiens
Description: SANGER: Inhibition of human NCI-H2291 cell growth in a cell viability assay.

A549 = experiment: cells; conditions: Homo sapiens
Description: SANGER: Inhibition of human A549 cell growth in a cell viability assay.

NBsusSR = experiment: cells; conditions: Homo sapiens
Description: SANGER: Inhibition of human NBsusSR cell growth in a cell viability assay.

BALL-1 = experiment: cells; conditions: Homo sapiens
Description: SANGER: Inhibition of human BALL-1 cell growth in a cell viability assay.

H-EMC-SS = experiment: cells; conditions: Homo sapiens
Description: SANGER: Inhibition of human H-EMC-SS cell growth in a cell viability assay.

NCI-H2029 = experiment: cells; conditions: Homo sapiens
Description: SANGER: Inhibition of human NCI-H2029 cell growth in a cell viability assay.

NCI-H2227 = experiment: cells; conditions: Homo sapiens
Description: SANGER: Inhibition of human NCI-H2227 cell growth in a cell viability assay.

ECC12 = experiment: cells; conditions: Homo sapiens
Description: SANGER: Inhibition of human ECC12 cell growth in a cell viability assay.

CRO-AP2 = experiment: SANGER: Inhibition of human CRO-AP2 cell growth in a cell viability assay.
SKM-1 = experiment: SANGER: Inhibition of human SKM-1 cell growth in a cell viability assay.
NCI-H128 = experiment: SANGER: Inhibition of human NCI-H128 cell growth in a cell viability assay.
EW-12 = experiment: SANGER: Inhibition of human EW-12 cell growth in a cell viability assay.
RT-4 = experiment: SANGER: Inhibition of human RT4 cell growth in a cell viability assay.
PLC-PRF-5 = experiment: cells; conditions: Homo sapiens
Description: SANGER: Inhibition of human PLC-PRF-5 cell growth in a cell viability assay.

DMS-53 = experiment: cells; conditions: Homo sapiens
Description: SANGER: Inhibition of human DMS-53 cell growth in a cell viability assay.

NCI-H1734 = experiment: cells; conditions: Homo sapiens
Description: SANGER: Inhibition of human NCI-H1734 cell growth in a cell viability assay.

Caov-3 cell line = experiment: cells; conditions: Homo sapiens
Description: SANGER: Inhibition of human Caov-3 cell growth in a cell viability assay.

C-4-II = experiment: SANGER: Inhibition of human C-4-II cell growth in a cell viability assay.
Caov-4 = experiment: cells; conditions: Homo sapiens
Description: SANGER: Inhibition of human Caov-4 cell growth in a cell viability assay.

CCF-STTG1 = experiment: cells; conditions: Homo sapiens
Description: SANGER: Inhibition of human CCF-STTG1 cell growth in a cell viability assay.

SK-CO-1 = experiment: cells; conditions: Homo sapiens
Description: SANGER: Inhibition of human SK-CO-1 cell growth in a cell viability assay.

HCC1143 = experiment: cells; conditions: Homo sapiens
Description: SANGER: Inhibition of human HCC1143 cell growth in a cell viability assay.

SNG-M = experiment: cells; conditions: Homo sapiens
Description: SANGER: Inhibition of human SNG-M cell growth in a cell viability assay.

IPC-298 = experiment: SANGER: Inhibition of human IPC-298 cell growth in a cell viability assay.
TT = experiment: cells; conditions: Homo sapiens
Description: SANGER: Inhibition of human TT cell growth in a cell viability assay.

Calu-1 = experiment: SANGER: Inhibition of human Calu-1 cell growth in a cell viability assay.
MFE-296 = experiment: SANGER: Inhibition of human MFE-296 cell growth in a cell viability assay.
EFE-184 = experiment: cells; conditions: Homo sapiens
Description: SANGER: Inhibition of human EFE-184 cell growth in a cell viability assay.

COLO 205 = experiment: cells; conditions: Homo sapiens
Description: SANGER: Inhibition of human COLO-205 cell growth in a cell viability assay.

DV-90 = experiment: cells; conditions: Homo sapiens
Description: SANGER: Inhibition of human DV-90 cell growth in a cell viability assay.

NCI-H838 = experiment: cells; conditions: Homo sapiens
Description: SANGER: Inhibition of human NCI-H838 cell growth in a cell viability assay.

MDA-MB-468 = experiment: cells; conditions: Homo sapiens
Description: SANGER: Inhibition of human MDA-MB-468 cell growth in a cell viability assay.

SNU-475 = experiment: cells; conditions: Homo sapiens
Description: SANGER: Inhibition of human SNU-475 cell growth in a cell viability assay.

NCI-H1618 = experiment: cells; conditions: Homo sapiens
Description: SANGER: Inhibition of human NCI-H1618 cell growth in a cell viability assay.

CHP-134 = experiment: SANGER: Inhibition of human CHP-134 cell growth in a cell viability assay.

## Cn1cc(/C=C2\C(=O)Nc3cccnc32)c2ccccc21
NCI-H1666
  IC50: > 2 µM
H9
  IC50: > 2 µM
NCI-H1048
  IC50: > 2 µM
OC-314
  IC50: > 2 µM
KNS-62
  IC50: > 2 µM
SW 1116
  IC50: > 2 µM
ZR-75-30
  IC50: > 2 µM
ECC10
  IC50: > 2 µM
RH-18
  IC50: > 2 µM
D-423MG
  IC50: > 2 µM
CFPAC-1
  IC50: > 2 µM
LU-135
  IC50: > 2 µM
NCI-H1975
  IC50: > 2 µM
TGBC11TKB
  IC50: > 2 µM
EPLC-272H
  IC50: > 2 µM
D-566MG
  IC50: > 2 µM
SW900
  IC50: > 2 µM
NCI-H2291
  IC50: > 2 µM
A549
  IC50: > 2 µM
NBsusSR
  IC50: > 2 µM
BALL-1
  IC50: > 2 µM
H-EMC-SS
  IC50: 0.765 µM
NCI-H2029
  IC50: > 2 µM

## Cc1ccc(NC(=O)c2cccc(C(C)(C)C#N)c2)cc1Nc1ccc2ncn(C)c(=O)c2c1
NCI-H2227
  IC50: > 4 µM
ECC12
  IC50: 1.71 µM
CRO-AP2
  IC50: > 4 µM
SKM-1
  IC50: > 4 µM
NCI-H128
  IC50: > 4 µM
EW-12
  IC50: > 4 µM

## O=c1[nH]c2ccccc2n1C1CCN(Cc2ccc(-c3nc4cc5[nH]cnc5cc4nc3-c3ccccc3)cc2)CC1
NCI-H2227
  IC50: > 2.56 µM
RT-4
  IC50: > 2.56 µM
ECC12
  IC50: > 2.56 µM
PLC-PRF-5
  IC50: > 2.56 µM
DMS-53
  IC50: > 2.56 µM
NCI-H1734
  IC50: > 2.56 µM
Caov-3 cell line
  IC50: > 2.56 µM
C-4-II
  IC50: > 2.56 µM
Caov-4
  IC50: > 2.56 µM
CCF-STTG1
  IC50: > 2.56 µM
SK-CO-1
  IC50: > 2.56 µM
HCC1143
  IC50: > 2.56 µM
SNG-M
  IC50: > 2.56 µM
IPC-298
  IC50: > 2.56 µM
TT
  IC50: > 2.56 µM
Calu-1
  IC50: > 2.56 µM
MFE-296
  IC50: 1.38 µM
EFE-184
  IC50: > 2.56 µM
COLO 205
  IC50: 2 µM
DV-90
  IC50: > 2.56 µM
NCI-H838
  IC50: > 2.56 µM
MDA-MB-468
  IC50: > 2.56 µM
SNU-475
  IC50: > 2.56 µM
NCI-H1618
  IC50: > 2.56 µM

## NC(=O)c1ncn([C@@H]2O[C@H](COP(=O)(O)O)[C@@H](O)[C@H]2O)c1N
NCI-H1666
  IC50: > 2000 µM
NCI-H1048
  IC50: > 2000 µM
KNS-62
  IC50: 996 µM
SW 1116
  IC50: > 2000 µM
ZR-75-30
  IC50: > 2000 µM
RH-18
  IC50: > 2000 µM
D-423MG
  IC50: > 2000 µM
CFPAC-1
  IC50: 1120 µM
LU-135
  IC50: > 2000 µM
NCI-H1975
  IC50: 1070 µM
TGBC11TKB
  IC50: > 2000 µM
EPLC-272H
  IC50: 569 µM
D-566MG
  IC50: > 2000 µM
SW900
  IC50: > 2000 µM
NCI-H2291
  IC50: > 2000 µM
A549
  IC50: > 2000 µM
NBsusSR
  IC50: 474 µM
BALL-1
  IC50: > 2000 µM

## Fc1cc(-c2cc[nH]/c(=N/c3ccc(-n4cnc(N5CCOCC5)n4)cc3)n2)cc(N2CCOCC2)c1
NCI-H2227
  IC50: > 5.12 µM
RT-4
  IC50: 3.56 µM
ECC12
  IC50: 0.324 µM
PLC-PRF-5
  IC50: 3.95 µM
DMS-53
  IC50: 1.08 µM
NCI-H1734
  IC50: 0.582 µM
Caov-3 cell line
  IC50: > 5.12 µM
C-4-II
  IC50: 0.405 µM
Caov-4
  IC50: > 5.12 µM
CCF-STTG1
  IC50: 0.624 µM
SK-CO-1
  IC50: 0.912 µM
HCC1143
  IC50: 0.954 µM
SNG-M
  IC50: 0.642 µM
IPC-298
  IC50: 0.854 µM
TT
  IC50: 3.55 µM
Calu-1
  IC50: 3.12 µM
MFE-296
  IC50: 0.174 µM
EFE-184
  IC50: 3.04 µM
COLO 205
  IC50: 0.152 µM
DV-90
  IC50: 0.958 µM
NCI-H838
  IC50: 0.416 µM
MDA-MB-468
  IC50: 0.944 µM
SNU-475
  IC50: > 5.12 µM
NCI-H1618
  IC50: 1.82 µM

## Cn1c(=O)n(-c2ccc(C(C)(C)C#N)cc2)c2c3cc(-c4cnc5ccccc5c4)ccc3ncc21 [DACTOLISIB]
NCI-H1666
  IC50: 0.00971 µM
NCI-H1048
  IC50: 0.0863 µM
OC-314
  IC50: 0.0387 µM
KNS-62
  IC50: 0.0454 µM
SW 1116
  IC50: > 2 µM
ZR-75-30
  IC50: > 2 µM
ECC10
  IC50: 0.032 µM
RH-18
  IC50: 0.395 µM
D-423MG
  IC50: 0.0521 µM
CFPAC-1
  IC50: 0.151 µM
LU-135
  IC50: > 2 µM
CHP-134
  IC50: 0.14 µM
TGBC11TKB
  IC50: 0.41 µM
EPLC-272H
  IC50: 0.0444 µM
D-566MG
  IC50: 0.0177 µM
SW900
  IC50: 0.155 µM
NCI-H2291
  IC50: 0.598 µM
A549
  IC50: 0.0101 µM
NBsusSR
  IC50: 0.0246 µM
BALL-1
  IC50: > 2 µM
H-EMC-SS
  IC50: 0.147 µM
NCI-H2029
  IC50: 1.42 µM
